From patent US5290689A, “New cyclic FR-900520 microbial biotransformation agent” (Merck & Co., Inc., priority 1992, dated 1994)
Entries after “also recorded” stand apart in the source; their conditions may differ.

How the values were obtained:
[1] = system: mouse T lymphocytes (Splenic T-cells stimulated with ionomycin + PMA); assay: T-cell proliferation assay (ionomycin + PMA stimulated, tritiated thymidine uptake); assay type: cell-based, mouse (C57B1/6)
Experimental: The principle of this assay is to measure the proliferation of mouse T lymphocytes stimulated with the combination of ionomycin plus PMA. A positive sample, e.g. FK-506, in this assay will inhibit T-cell proliferation, as indicated by reduced tritiated thymidine uptake.
T-Cell Proliferation Assay
Purified Compound I, as prepared by HPLC above, was dissolved in absolute ethanol at 1 mg/ml.
Spleens from C57B1/6 mice were taken under sterile conditions and gently dissociated in ice-cold RPMI 1640 culture medium (GIBCO, Grand Island, N.Y.) supplemented with 10% heat-inactivated fetal calf serum (GIBCO). Cells were pelleted by centrifugation at 1500 rpm for 8 minutes. Contaminating red cells were removed by treating the pellet with ammonium chloride lysing buffer (GIBCO) for 2 minutes at 4° C. […]
Purified T lymphocytes were resuspended at 2.5×10^5 cells/ml in complete culture medium composed of RPMI 1640 medium with 10% heat-inactivated fetal calf serum, […], 1 mM sodium pyruvate, 2×10^-5 M 2-mercaptoethanol and 50 μg/ml gentamycin. […] Radioactivity of filter discs corresponding to individual wells was measured by standard liquid scintillation counting methods (Betacounter). Mean counts per minute of replicate wells were calculated and the results expressed as percent inhibition of tritiated thymidine uptake (proliferation) as follows: [formula] […]

[2] = reputed; EPO Publication No. 0184162; cited from earlier work

Structure (SMILES) | Inhibition of T-cell proliferation on addition of IL2 ([1]; 50 units/ml recombinant IL2 added at the initiation of culture) | immunosuppressant activity (inhibition of T-cell activation) ([1]; qualitative) | effectiveness as immunosuppressant relative to cyclosporin [2] [times]
CC[C@@H]1C=C2COC1(O)C[C@H](O)[C@@H](C)[C@@H](/C(C)=C/[C@@H]1CC[C@@H](O)[C@H](OC)C1)OC(=O)[C@@H]1CCCCN1C(=O)C(=O)[C@]1(O)O[C@H]([C@@H](OC)C[C@@H](C)C2)[C@@H](OC)C[C@H]1C [Compound I] | reversed | positive inhibition of T-cell activation; also recorded: positive immunosuppressive activity | 
C=CC[C@@H]1/C=C(\C)C[C@H](C)C[C@H](OC)[C@H]2O[C@@](O)(C(=O)C(=O)N3CCCC[C@H]3C(=O)O[C@H](/C(C)=C/[C@@H]3CC[C@@H](O)[C@H](OC)C3)[C@H](C)[C@@H](O)CC1=O)[C@H](C)C[C@@H]2OC [FK-506] |  |  | 100
